Assay results published in patent US6869603B2, “Lipoprotein lipase and lipoprotein lipase activators in the treatment of inflammatory conditions” (The Brigham and Women's Hospital, Inc., priority 2001, dated 2005).
Entries after “also recorded” stand apart in the source; their conditions may differ. Blank lines part the entries; values can stand above or below the molecule they belong to.

Tests used:
[1] = target: T1, PPAR-alpha-ligand binding domain (LBD) (Homo sapiens, UniProt Q07869); test: PPAR-alpha-LBD/GAL4 chimeric construct activation (luciferase) in transiently transfected primary bovine aortic endothelial cells; format: cell-based; settings: for Effect on VLDL/LPL-mediated PPAR-alpha-LBD activation: agent added to VLDL/LPL treatment; for Effect on LPL/LDL− dependent activation of PPAR-alpha: agent added to LDL−/LPL
T1 construct: yeast GAL4 (fusion partner); expressed in transfected cells; host or cells: primary bovine aortic endothelial cells (passage 3-6)
T1 sequence (Q07869 239-466 limits assumed): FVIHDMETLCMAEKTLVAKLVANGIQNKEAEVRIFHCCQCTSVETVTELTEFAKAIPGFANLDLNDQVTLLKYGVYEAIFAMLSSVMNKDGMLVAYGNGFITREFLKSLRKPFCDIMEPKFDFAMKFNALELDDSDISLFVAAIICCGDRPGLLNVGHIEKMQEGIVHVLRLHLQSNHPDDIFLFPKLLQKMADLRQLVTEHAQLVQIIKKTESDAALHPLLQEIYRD
T1 sequence (P04386 1-147 partner limits assumed): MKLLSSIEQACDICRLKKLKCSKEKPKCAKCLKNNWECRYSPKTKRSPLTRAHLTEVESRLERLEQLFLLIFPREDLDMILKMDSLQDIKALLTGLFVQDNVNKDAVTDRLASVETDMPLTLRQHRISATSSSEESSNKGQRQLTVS
Description: Transient transfection: Transient transfection was carried out in 24-well plates at 2.3×10^4 primary bovine aortic EC (passage 3-6) per well using Superfect (Qiagen) or Fugene (F. Hoffmann-La Roche). PCMX-β-galactosidase expression vector was used for transfection control. LPL and LPL mutant expression vectors have been previously characterized. Luciferase (Pharmingen, San Diego, Calif.) and P-galactosidase activity were measured according to manufacturer's protocols.
LPL lipolysis of TG-LP generates PPARα ligands: We tested if LPL generates endogenous PPAR-alpha ligands from TG-LP by analyzing activation of chimeric PPAR-alpha-ligand binding domain (LBD) constructs in yeast GAL4 assays. […] Maximal induction was highest for VLDL (21 fold), followed by LDL (14 fold) and HDL (7 fold).
(§1) Transient transfection: Transient transfection was carried out in primary (passage 3 to 6) bovine aortic endothelial cells using the Superfect method (Qiagen, Germany) according to manufacturer's directions. Briefly, cells were plated in 24-well plates at 2.3×10^4 cells per well in DMEM containing 10% fetal calf serum. After 16 h of growth, cells were washed with HBSS and transfected with medium containing Superfect/DNA (ratio 5.5/1) for 4 hours or with FuGene (1.5/1) overnight. Reporter construct pUASx4-TK-luc, chimeric human PPAR-alpha-LBD constructs, PPAR-alpha and LDL receptor (LDLr) overexpression vectors, and the VCAM-1 promoter-luc, have been described previously. A PCMX-B-galactosidase expression vector was used as a transfection control. Cells were maintained overnight in medium, followed by treatment with compounds for 10 hrs in DMEM medium containing 1% FCS (for PPAR-alpha-LBD constructs) and 1% Nutridoma SP (for VCAM-1 promoter studies). Cells lysed in buffer (Pharmingen) were assayed for luciferase activity using a reported assay system (Pharmingen) according to the manufacturer's instructions. β-galactosidase activity was monitored at 540 nm using CRPTG (Boeringer Mannheim) as substrate.

[2] = tested on: acyl-coenzymeA-oxidase (ACO); test: ACO mRNA expression (Northern blot) in HepG2 and primary human macrophages; format: cell-based
Description: Cell Culture: Circulating human monocytes were isolated from healthy volunteers. Differentiated cells (day 7-10) were treated in M199 medium. Peritoneal Mφ were isolated after 5% thioglycollate broth injection into 2-6 month old PPAR-alpha^+/+ and PPAR-alpha^−/− mice. Mφ were cultured in 10% FCS/DMEM 24 h prior to stimulation. HepG2 cells (ATCC, Manassas, Va.) were cultured in 10% FCS/DMEM.
RNA analysis: Total cell RNA was isolated using RNAEasy kit (Qiagen, Valencia, Calif.), separated using a 1% agarose gel, transferred to a Hydrobone membrane (Amersham, Piscataway, N.J.) and Northern blotting was then performed. cDNA probes for LPL and ACO were obtained from ATCC (Manassas, Va.).
LPL lipolysis of TG-LP activates PPARα-regulated genes: We tested if activation of PPAR-alpha by VLDL/LPL induced expression of an established PPAR-alpha target gene, acyl-coenzymeA-oxidase (ACO). […] In vivo, increased ACO expression has been shown in LPL-overexpressing mice.

[3] = tested on: VCAM-1 promoter; test: VCAM-1 promoter-luc transient transfection in bovine endothelial cells (BoEC); format: cell-based
Description: as §1, with “substrate. LDL− augments TNFα-mediated VCAM-1 expression: Surface expression of VCAM-1 was studied in HUVEC activated by TNFα. […]” for “substrate.”

[4] = tested on: VCAM-1; test: Cell surface ELISA of VCAM-1 expression in HUVEC; format: cell-based, human; settings: single stimulus
Description: Cell Culture: Human endothelial cells were isolated from umbilical veins and cultured in M199 medium (BioWittaker) containing penicillin/streptomycin, Fungozom, ECGF and 5% fetal calf serum. Cells from passage 3 to 5 were used for experiments. Cells were pretreated with 100 uM fenofibric acid or WY 14643 for 24 h and with LDL species/LPL for 1 h prior to addition of 50 ng/ml TNFα. Subsequent duration of incubations varied. Prior to any procedure cells were washed with ice-cold PBS.
Cell surface ELISA assays were preformed in 96-well plates on confluent monolayers of HUVEC. Treated cells were maintained on ice for 10 minutes, washed with cold PBS and incubated with monoclonal antibodies raised against human VCAM-1. VCAM-1 expression was visualized using alkaline phosphate secondary antibody and measured at […].
LDL− augments TNFα-mediated VCAM-1 expression: Surface expression of VCAM-1 was studied in HUVEC activated by TNFα. Cell stimulation with LDL− lead to approximately a two-fold increase in VCAM-1 expression. In presence of TNFα, VCAM-1 expression was increased 5-fold. […] Here we found a 50% decrease in VCAM-1 expression induced by LDL− and TNFα but pretreated with PPAR-α agonists. […] The VCAM-1 activation was reduced by two-fold in cells ectopically expressing human PPAR-alpha.

Molecule: cyclochalasin
Effect on VLDL/LPL-mediated PPAR-alpha-LBD activation [1]: None of these treatments had any effect

Effect on VLDL-induced ACO response [2]: inhibited this VLDL response
Molecule: CCCCCCCCCCC[C@@H](C[C@@H]1OC(=O)[C@H]1CCCCCC)OC(=O)[C@H](CC(C)C)NC=O [tetrahydrolipstatin]
Effect on VLDL/LPL-mediated PPAR-alpha-LBD activation [1]: inhibited LPL-mediated PPAR-alpha-LBD activation in a dose-dependent fashion

Molecule: CC(C)(Oc1ccc(C(=O)c2ccc(Cl)cc2)cc1)C(=O)O [Fenofibric acid]
Decrease in LDL−/TNFα dependent VCAM-1 induction ([3]; cells co-transfected with PPAR-alpha vector): 60%
Decrease in LDL−/TNFα dependent VCAM-1 induction ([3]; cells co-transfected with control vector): 40%

Molecule: TNFα
Increase in VCAM-1 surface expression [4]: 5 fold

Effect on LPL/LDL− dependent activation of PPAR-alpha [1]: inhibited; also recorded: abolished
Molecule: ApoCIII: natural LPL inhibitor

Effect on VLDL/LPL-mediated PPAR-alpha-LBD activation [1]: None of these treatments had any effect
Molecule: heparin

PPAR-alpha-LBD activation by lipolytic products (significant activators of PPAR-alpha) ([1]; lipid added alone): activates PPAR-alpha-LBD
Molecule: monoacylglycerols [MAG]

Effect on LPL/LDL− dependent activation of PPAR-alpha [1]: abolished
B1: heat-inactivated LPL: heat-inactivated lipoprotein lipase (protein, UniProt P06858 28-475, looked up)
Lipoprotein lipase: ADQRRDFIDIESKFALRTPEDTAEDTCHLIPGVAESVATCHFNHSSKTFMVIHGWTVTGMYESWVPKLVAALYKREPDSNVIVVDWLSRAQEHYPVSAGYTKLVGQDVARFINWMEEEFNYPLDNVHLLGYSLGAHAAGIAGSLTNKKVNRITGLDPAGPNFEYAEAPSRLSPDDADFVDVLHTFTRGSPGRSIGIQKPVGHVDIYPNGGTFQPGCNIGEAIRVIAERGLGDVDQLVKCSHERSIHLFIDSLLNEENPSKAYRCSSKEAFEKGLCLSCRKNRCNNLGYEINKVRAKRSSKMYLKTRSQMPYKVFHYQVKIHFSGTESETHTNQAFEISLYGTVAESENIPFTLPEVSTNKTYSFLIYTEVDIGELLMLKLKWKSDSYFSWSDWWSSPGFAIQKIRVKAGETQKKVIFCSREKVSHLQKGKAPAVFVKCHDKSLNKKSG
modifications: heat-inactivated
PPAR-alpha-LBD activation after enzyme treatment of lipoproteins ([1]; enzyme plus lipoprotein): failed to induce PPAR-alpha-LBD activation
